From patent US20240090546A1, “COMPOSITIONS COMPRISING AND METHODS OF USING 1,3-PROPANEDIOL, TO IMPROVE SWEETNESS AND/OR REDUCE BITTERNESS OF SWEETENERS” (Primient Covation LLC, priority 2022, published 2024) come the findings set out here.

What all share (type): in vivo, human
Experiment [1] deals with Six panelists experienced in the evaluation of food and beverages. As to the kind of experiment: Tasting of sweeteners with and without Zemea USP-FCC propanediol. As to conditions: sweetener with 5 ppm Zemea USP-FCC Propanediol versus without. The source says:
Six panelists experienced in the evaluation of food and beverages tasted sweeteners and commercial beverages with and without the addition of Zemea USP-FCC propanediol. The six panelists tasted the products and discussed their perceptions of the flavor. They indicated whether the test or control product in each pair was sweeter, less bitter, and/or less sour.

The subject of experiment [2] is panelists. As to the kind of experiment: Absolute taste threshold of Zemea USP-FCC PDO in water (flash profile, blind tasting). As to conditions: at 690 ppm (FEMA #4753 use limit for beverages). The source says: (§1) • 1. Panelists: Recruit at least 5 and preferably 12 staff who has no allergy to the big 8 food allergens. • 2. Prototypes: • a. Freshly made to same age (<1 week if possible) • b. Serve all samples at same size (>1 oz for beverages), and at same temperature (70F for foods, 40F for beverages) • 3. Random coded (3-digit) and random ordered up to 5 samples • 4. Keep to less than 5 samples per panel session. Less than 4 panels/day. • 5. For each panelist, ship (under covid-19): • a. one set of 5 samples • b. one instruction (this page) ballot (attachment 1) and one example for how to fill in (attachment 2) • c. one bottled water (Aquafina or equivalent, no minerals added. Panelist to bring own under covid-19) • 6. […] Describe the panelists how to blind-taste same day upon receipt according to panelists instruction below. • 8. […] Ask each panelist to scan/send a picture of the filled-in ballot to panel leader. Panel leader will issue a “directional analysis” (1 day) as a minimum and may include PCA (3 days) leading to conclusions and recommendations.
(§2) Instruction for Flash Profiling Method panelists: • 1. […] Please taste this set mid-morning (9a-N) or mid-afternoon (2-4p) if possible • 3. Arrange the 5 samples in front of you in any order • 4. For the Flash Profiling Method ballot, fill in today's Date, your Name, and Sample (s) as “project xxx-Round x samples” • 5. […]

Experiment [3] concerns Six panelists experienced in the evaluation of food and beverages. As to the kind of experiment: Screening of Zemea USP-FCC at 5, 20 and 100 ppm in reduced sugar stevia sweetened orange juice. As to conditions: 5 ppm, compared with 20 and 100 ppm and control. The source says:
Six panelists experienced in the evaluation of food and beverages screened Zemea® USP-FCC at 5, 20, and 100 ppm in a reduced sugar stevia sweetened orange juice. The reduced sugar stevia sweetened orange juice containing no Zemea® USP-FCC was used as the control.

The next experiment concerns 40 untrained panelists. As to the kind of experiment: Paired comparison test for bitterness, reduced sugar stevia sweetened orange juice. As for the experimental part: Paired comparison tests for bitterness were conducted on 40 untrained panelists. The reduced sugar stevia sweetened orange juice was used as the control and was prepared with 0.0005% Zemea® USP-FCC (5 ppm) as the test variable. The products were served in 2-ounce soufflé cups labeled with 3-digit codes at refrigerated temperatures. The panelists were asked to identify the sample that was more bitter. Bottled water and unsalted crackers were available for panelists to clear their palates before and during testing.

The test system of experiment [4] is panelists. Nature of the experiment: Flash profile blind tasting of beverages and bitter substances with Zemea USP-FCC added. The settings on record: Zemea added at 5-940 ppm to the beverages and bitter substances of Table 1; blind tasting by N>6.
Description: as §1, §2

In the case of `O=C(CO)C(O)C(O)C(O)CO` (stereo not shown) [Allulose], in experiment [1], the Effect entry is on record as “Enhanced sweetness”.
The same measure, in the same setting: under `OC[C@@H](O)[C@@H](O)CO` [Erythritol] stands “Enhanced sweetness”.
On to `OC[C@H]1O[C@@](CO)(O[C@H]2O[C@H](CO)[C@@H](O)[C@H](O)[C@H]2O)[C@@H](O)[C@@H]1O` [Sucrose, sucrose], for which the Effect result in experiment [1] is given as “Enhanced sweetness”.
The same measure, in the same setting: the value for `O=C(CO)[C@@H](O)[C@@H](O)[C@H](O)CO` [Tagatose] was “Enhanced sweetness”.
With `OCCCO` [Zemea® USP-FCC Propanediol, 1,3-propanediol], in the experiment on panelists [2], the “taste of Zemea USP-FCC PDO” value is “tasteless”. The bitterness perception entry in experiment [3] was “lowest bitterness perception”. Further, the “number of 40 untrained panelists who identified the sample as more bitter” value in the experiment with 40 untrained panelists (5 ppm (0.0005%) in stevia-sweetened orange juice, control chosen by 26, one-tailed exact p-value 0.04) was determined as 14. Further, the “bitterness versus control containing no Zemea USP-FCC” value in the experiment with 40 untrained panelists (5 ppm added directly to reduced sugar orange juice with stevia, p-value 0.04, one-tailed) is listed as “statistically less bitter”. In addition, in the experiment with panelists [4], the “bitterness of individual ingredients and beverages” value is given as “less bitter”; the “liking of individual ingredients and beverages” value is reported as “more liked”.
